What is called IC50 is the concentration that inhibits the measured activity by half.

The structures appear in SMILES notation. Read-outs that look alike come from different tables or passages of the source. Some results are limits rather than exact numbers.

34 compounds from patent US6750228B1, “Aromatic sulfone hydroxamic acid metalloprotease inhibitor” (priority 1997, dated 2004) can be followed below.

Common to all, as to assay: biochemical
For one assay, the target named is T1, MMP-1 (Homo sapiens, UniProt P03956).
T1 construct: made in house; host or cells: transfected HT-1080 cells (provided by Dr. Harold Welgus, Washington University)
T1 sequence (P03956 100-469): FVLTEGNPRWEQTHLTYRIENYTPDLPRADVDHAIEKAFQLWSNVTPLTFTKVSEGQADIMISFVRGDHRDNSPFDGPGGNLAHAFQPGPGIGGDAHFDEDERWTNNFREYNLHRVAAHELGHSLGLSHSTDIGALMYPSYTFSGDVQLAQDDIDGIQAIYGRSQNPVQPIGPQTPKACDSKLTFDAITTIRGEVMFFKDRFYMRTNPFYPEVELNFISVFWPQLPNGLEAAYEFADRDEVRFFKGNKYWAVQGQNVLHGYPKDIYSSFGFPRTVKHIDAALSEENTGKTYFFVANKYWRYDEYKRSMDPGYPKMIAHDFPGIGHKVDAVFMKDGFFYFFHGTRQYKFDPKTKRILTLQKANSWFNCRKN
The settings on record: recombinant human MMP-1, MCA peptide substrate 4 μM, pH 7.5, room temperature; read-out: MMP-1 IC50. Summed up: (§1)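 Assay buffer 100 mM Tris-HCl, 100 mM NaCl, 10 mM CaCl2, pH 7.5. Activated MMP + inhibitor, 5 min RT; then methoxycoumarin peptide substrate, 4 μM final. Readout fluorescence; IC50 calculated.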

A further assay concerns the target T2, MMP-2 (Homo sapiens, UniProt P08253).
T2 construct: made in house; provided by Dr. Gregory Goldberg, Washington University
T2 sequence (P08253 110-660): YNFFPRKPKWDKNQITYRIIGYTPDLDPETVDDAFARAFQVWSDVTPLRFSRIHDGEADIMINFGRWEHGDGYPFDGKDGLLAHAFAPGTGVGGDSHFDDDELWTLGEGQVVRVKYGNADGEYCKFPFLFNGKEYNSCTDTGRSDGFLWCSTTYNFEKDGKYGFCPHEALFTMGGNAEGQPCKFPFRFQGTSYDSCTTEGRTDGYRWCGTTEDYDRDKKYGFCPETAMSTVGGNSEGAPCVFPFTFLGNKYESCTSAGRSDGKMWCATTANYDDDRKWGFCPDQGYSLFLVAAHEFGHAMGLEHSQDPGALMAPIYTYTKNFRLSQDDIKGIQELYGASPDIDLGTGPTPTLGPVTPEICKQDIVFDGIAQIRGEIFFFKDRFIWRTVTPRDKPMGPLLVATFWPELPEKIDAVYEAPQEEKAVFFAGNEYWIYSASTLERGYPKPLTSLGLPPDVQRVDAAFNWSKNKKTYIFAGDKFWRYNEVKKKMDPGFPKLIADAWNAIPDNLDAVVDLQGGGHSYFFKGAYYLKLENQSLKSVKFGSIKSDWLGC
Summed up:
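APMA- or trypsin-activated human MMPs (MMP-1 from transfected HT-1080 cells, MMP-2 from transfected cells) preincubated with inhibitor in 1% DMSO at room temperature, then 4 μM MCA-Pro-Leu-Gly-Leu-Dpa-Ala-Arg-NH2 added in Tris/NaCl/CaCl2 buffer pH 7.5. IC50 from fluorescence reduction versus inhibitor concentration.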

The target of another assay is T3, MMP-13 (Homo sapiens, UniProt P45452).
T3 construct: made in house; host or cells: baculovirus / insect cells
Summed up: as §1

Setting [1] is: recombinant human MMP-2, MCA peptide substrate 4 μM, pH 7.5, room temperature, read-out: MMP-2 IC50.
[2] abbreviates: recombinant human MMP-13, MCA peptide substrate 4 μM, pH 7.5, room temperature, read-out: MMP-13 IC50.
Setting [3] is: MMP-13 IC50 (nM), recombinant human MMP-13, MCA peptide substrate 4 μM, pH 7.5, room temperature.

Turning to `CCCCOc1ccc(NC(=O)OC2CCN(c3ccc(S(=O)(=O)C4(C(=O)NO)CCOCC4)cc3)CC2)cc1` [Example 518], the IC50 on MMP-1 was greater than 10000 nM; at MMP-2 (setting [1]) it was 350 nM; on MMP-13 (setting [2]) it was 11.4 nM.
For the compound `O=C(Nc1ccc(Oc2ccccc2)cc1)OC1CCN(c2ccc(S(=O)(=O)C3(C(=O)NO)CCOCC3)cc2)CC1` [Example 519], the IC50 is greater than 10000 nM on MMP-1, 1300 nM on MMP-2 (setting [1]) and 45.4 nM on MMP-13 (setting [2]).
`O=C(NCc1ccccc1)OC1CCN(c2ccc(S(=O)(=O)C3(C(=O)NO)CCOCC3)cc2)CC1` [Example 520]: the results for the IC50 on MMP-1, at MMP-2 (setting [1]) and on MMP-13 (setting [2]) were greater than 10000 nM, 250 nM and 22.5 nM, respectively.
Take `O=C(Nc1ccccc1Cl)OC1CCN(c2ccc(S(=O)(=O)C3(C(=O)NO)CCOCC3)cc2)CC1` [Example 521]: the IC50 was greater than 10000 nM on MMP-1, 50 nM on MMP-2 (setting [1]) and 3.5 nM on MMP-13 (setting [2]).
Take `COCc1ccc(COC2CCN(c3ccc(S(=O)(=O)C4(C(=O)NO)CCOCC4)cc3)CC2)cc1` [Example 522]: the IC50 is greater than 10000 nM on MMP-1, 94 nM on MMP-2 (setting [1]) and 2.4 nM on MMP-13 (setting [2]).
As for `CCN(CC)Cc1ccc(COC2CCN(c3ccc(S(=O)(=O)C4(C(=O)NO)CCOCC4)cc3)CC2)cc1` [Example 523], the IC50 is greater than 10000 nM at MMP-1, 190 nM at MMP-2 (setting [1]) and 2.4 nM at MMP-13 (setting [2]).
Regarding `COC1CCCN(c2ccc(S(=O)(=O)C3(C(=O)NO)CCOCC3)cc2)C1` (stereo not drawn) [Example 524], the values for the IC50 on MMP-1, at MMP-2 (setting [1]) and at MMP-13 (setting [2]) were greater than 10000 nM, 6400 nM and 2700 nM, respectively.
As to `COCC1CCCN(c2ccc(S(=O)(=O)C3(C(=O)NO)CCOCC3)cc2)C1` (stereo not drawn) [Example 525], the IC50 on MMP-1 was greater than 10000 nM; at MMP-2 (setting [1]) it was 700 nM; on MMP-13 (setting [2]), 290 nM.
For `O=C(NO)C1(S(=O)(=O)c2ccc(N3CC[C@@H](COCc4ccc(F)cc4)C3)cc2)CCOCC1` [Example 526], in that order: greater than 10000 nM, greater than 10000 nM and greater than 10000 nM.
On to `O=C(NO)C1(S(=O)(=O)c2ccc(N3CC[C@@H](COCc4ccc(OC(F)(F)F)cc4)C3)cc2)CCOCC1` [Example 527], for which the IC50 was greater than 10000 nM on MMP-1, 9000 nM at MMP-2 (setting [1]) and 6700 nM at MMP-13 (setting [2]).
Take `COC[C@@H]1CCN(c2ccc(S(=O)(=O)C3(C(=O)NO)CCOCC3)cc2)C1` [Example 529]: the half-maximal inhibitory concentration (IC50) at MMP-1 was greater than 10000 nM; on MMP-2 (setting [1]), greater than 10000 nM; on MMP-13 (setting [2]), 8800 nM.
As to `O=C(NO)C1(S(=O)(=O)c2ccc(N3CC[C@@H](OCc4ccccc4)C3)cc2)CCOCC1` [Example 530], the results for the IC50 on MMP-1, on MMP-2 (setting [1]) and on MMP-13 (setting [2]) were greater than 10000 nM, 60.7 nM and 20 nM, respectively.
With `O=C(NO)C1(S(=O)(=O)c2ccc(N3CC[C@@H](OCc4ccc(F)cc4)C3)cc2)CCOCC1` [Example 531], the IC50 was greater than 10000 nM at MMP-1, 10 nM on MMP-2 (setting [1]) and 13 nM at MMP-13 (setting [2]).
`O=C(NO)C1(S(=O)(=O)c2ccc(N3CC[C@@H](OCc4cccc(C(F)(F)F)c4)C3)cc2)CCOCC1` [Example 532]: the IC50 was greater than 10000 nM on MMP-1, 150 nM on MMP-2 (setting [1]) and 10 nM at MMP-13 (setting [2]).
On to `CO[C@@H]1CCN(c2ccc(S(=O)(=O)C3(C(=O)NO)CCOCC3)cc2)C1` [Example 533], for which the IC50 is greater than 10000 nM at MMP-1, 150 nM on MMP-2 (setting [1]) and 60 nM on MMP-13 (setting [2]).
For the compound `O=C(NO)C1(S(=O)(=O)c2ccc(N3CCN(c4cc(C(F)(F)F)ccn4)CC3)cc2)CCOCC1` [Example 534], the IC50 on MMP-1 is greater than 10000 nM; on MMP-2 (setting [1]), 480 nM; on MMP-13 (setting [2]) it was 30 nM.
Take `Cc1ccc(N2CCN(c3ccc(S(=O)(=O)C4(C(=O)NO)CCOCC4)cc3)CC2)cc1` [Example 535]: the results for the IC50 at MMP-1, on MMP-2 (setting [1]) and against MMP-13 (MMP-13 IC50 (nM)) were greater than 10000 nM, 35 nM and 1.9 nM, respectively.
Regarding `Cc1ccccc1N1CCN(c2ccc(S(=O)(=O)C3(C(=O)NO)CCOCC3)cc2)CC1` [Example 536], the IC50 on MMP-1 is greater than 10000 nM; at MMP-2 (setting [1]), 88 nM; on MMP-13 (setting [2]) it was 7.7 nM.
For `O=C(c1ccco1)N1CCN(c2ccc(S(=O)(=O)C3(C(=O)NO)CCOCC3)cc2)CC1` [Example 537], in that order: 5200 nM, 55 nM and 70 nM.
On to `O=C(NO)C1(S(=O)(=O)c2ccc(N3CCN(Cc4ccccc4)CC3)cc2)CCOCC1` [Example 538], for which the figures for the IC50 at MMP-1, on MMP-2 (setting [1]) and at MMP-13 (setting [2]) were greater than 10000 nM, 370 nM and 80 nM, respectively.
With `CC(=O)N1CCN(c2ccc(S(=O)(=O)C3(C(=O)NO)CCOCC3)cc2)CC1` [Example 539], the IC50 at MMP-1 was greater than 10000 nM; at MMP-2 (setting [1]), 350 nM; on MMP-13 (setting [2]), 270 nM.
Take `O=C(NO)C1(S(=O)(=O)c2ccc(N3CCC(c4cccc5ccccc45)CC3)cc2)CCOCC1` [Example 540]: the figures for the IC50 at MMP-1, at MMP-2 (setting [1]) and at MMP-13 (setting [3]) were greater than 10000 nM, 500 nM and 11.4 nM, respectively.
In the case of `O=C(NO)C1(S(=O)(=O)c2ccc(N3CCC(c4ccc(Cl)cc4)CC3)cc2)CCOCC1` [Example 541], the IC50 on MMP-1 was greater than 10000 nM; on MMP-2 (setting [1]), 2 nM; at MMP-13 (setting [3]) it was 0.7 nM.
As to `O=C(NO)C1(S(=O)(=O)c2ccc(N3CCC(c4ccccc4-c4ccc(F)cc4)CC3)cc2)CCOCC1` [Example 543], the IC50 was greater than 10000 nM at MMP-1, 5400 nM on MMP-2 (setting [1]) and 33.7 nM at MMP-13 (setting [3]).
On to `CCOc1ccccc1C1CCN(c2ccc(S(=O)(=O)C3(C(=O)NO)CCOCC3)cc2)CC1` [Example 544], for which the values for the IC50 on MMP-1, at MMP-2 (MMP-2 IC50 (nM)) and at MMP-13 (setting [2]) were greater than 10000 nM, 3100 nM and 35 nM, respectively.
With `O=C(NO)C1(S(=O)(=O)c2ccc(N3CCC(Oc4cc(F)cc(F)c4)CC3)cc2)CCOCC1` [Example 545], the IC50 was greater than 10000 nM at MMP-1, 120 nM on MMP-2 (setting [1]) and 7.7 nM on MMP-13 (setting [2]).
Consider `O=C(NO)C1(S(=O)(=O)c2ccc(N3CCC(Oc4ccc([N+](=O)[O-])cc4)CC3)cc2)CCOCC1` [Example 546], for which the IC50 at MMP-1 is greater than 10000 nM; at MMP-2 (setting [1]), 18.6 nM; on MMP-13 (setting [2]) it was 2.7 nM.
Consider `O=C(NO)C1(S(=O)(=O)c2ccc(N3CCC(Oc4ccccc4F)CC3)cc2)CCOCC1` [Example 547], for which the IC50 was greater than 10000 nM at MMP-1, 64.7 nM at MMP-2 (setting [1]) and 5 nM at MMP-13 (setting [2]).
On to `O=C(NO)C1(S(=O)(=O)c2ccc(N3CCC(Oc4ccc([N+](=O)[O-])c(F)c4)CC3)cc2)CCOCC1` [Example 548], for which the IC50 on MMP-1 is greater than 10000 nM; at MMP-2 (setting [1]), 800 nM; at MMP-13 (setting [2]), 40 nM.
With `O=C(NO)C1(S(=O)(=O)c2ccc(N3CCC(Oc4cc(F)c([N+](=O)[O-])c(F)c4)CC3)cc2)CCOCC1` [Example 549], the IC50 on MMP-1 is greater than 10000 nM; on MMP-2 (setting [1]), 2900 nM; at MMP-13 (setting [2]), 55.3 nM.
As for `Cc1ccc([N+](=O)[O-])c(OC2CCN(c3ccc(S(=O)(=O)C4(C(=O)NO)CCOCC4)cc3)CC2)c1` [Example 550], the IC50 at MMP-1 is greater than 10000 nM; on MMP-2 (setting [1]), 2000 nM; on MMP-13 (setting [2]), 20 nM.
Taken in the same sequence, the figures for `Cc1ccc(OC2CCN(c3ccc(S(=O)(=O)C4(C(=O)NO)CCOCC4)cc3)CC2)c([N+](=O)[O-])c1` [Example 551] were greater than 10000 nM, 140 nM and 9 nM.
For the compound `O=C(NO)C1(S(=O)(=O)c2ccc(N3CCC(Oc4ccccc4[N+](=O)[O-])CC3)cc2)CCOCC1` [Example 552], the IC50 is greater than 10000 nM at MMP-1, 140 nM at MMP-2 (setting [1]) and 12.8 nM at MMP-13 (setting [2]).
For the compound `Nc1ccc(OC2CCN(c3ccc(S(=O)(=O)C4(C(=O)NO)CCOCC4)cc3)CC2)cc1` [Example 553], the IC50 was greater than 10000 nM at MMP-1, 50 nM on MMP-2 (setting [1]) and 12.8 nM on MMP-13 (setting [2]).
